According to patent publication US9943504B2, “Arginine methyltransferase inhibitors and uses thereof” (Epizyme, Inc., priority 2013, dated 2018):

Molecular target: T1, human PRMT8 (Homo sapiens, UniProt Q9NR22)
T1 construct: Full-length human PRMT8 (NM_019854.4) isoform 1 transcript clone; made in house; host or cells: E. coli BL21(DE3) Gold
Test: PRMT8 Biochemical Assay
Details: biochemical evaluation, peptide substrate
From the text: S-adenosylmethionine (SAM), S-adenosylhomocysteine (SAH), bicine, Tween20, dimethylsulfoxide (DMSO), bovine skin gelatin (BSG), isopropyl-β-D-thiogalactopyranoside (IPTG), and Tris(2-carboxyethyl)phosphine hydrochloride solution (TCEP) were purchased from Sigma-Aldrich at the highest level of purity possible. ^3H-SAM was purchase from American Radiolabeled Chemicals with a specific activity of 80 Ci/mmol. 384-well streptavidin Flashplates were purchased from PerkinElmer.
Peptide representative of human histone H4 residues 31-45 was synthesized with an N-terminal linker-affinity tag motif and a C-terminal amide cap by 21st Century Biochemicals. The peptide was purified by high-performance liquid chromatography (HPLC) to greater than 95% purity and confirmed by liquid chromatography mass spectrometry (LC-MS). The sequence was Biot-Ahx-[…]-amide (SEQ ID NO.: 8).
The resulting construct encodes an N-terminal GST tag and a thrombin cleavage sequence ([…] […]
The assays were all performed in a buffer consisting of 20 mM Bicine (pH=7.6), 1 mM TCEP, 0.005% BSG, and 0.002% Tween 20, prepared on the day of use. […] The plates were then read in a PerkinElmer TopCount plate reader to measure the quantity of ^3H-labeled peptide bound to the Flashplate surface, measured as disintegrations per minute (dpm) or alternatively, referred to as counts per minute (cpm). […]

T1 sequence (Q9NR22 whole entry, canonical isoform): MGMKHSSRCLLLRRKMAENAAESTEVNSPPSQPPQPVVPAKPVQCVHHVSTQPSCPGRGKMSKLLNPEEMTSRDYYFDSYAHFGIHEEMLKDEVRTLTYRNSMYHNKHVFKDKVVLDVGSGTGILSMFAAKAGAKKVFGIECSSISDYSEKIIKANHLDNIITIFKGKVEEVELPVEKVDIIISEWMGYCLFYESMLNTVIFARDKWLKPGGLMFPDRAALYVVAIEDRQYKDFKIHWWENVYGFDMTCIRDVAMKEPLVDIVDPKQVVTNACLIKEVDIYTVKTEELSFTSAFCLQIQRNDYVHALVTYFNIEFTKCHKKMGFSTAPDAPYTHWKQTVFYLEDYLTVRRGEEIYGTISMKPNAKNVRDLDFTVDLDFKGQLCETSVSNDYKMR

CN(CCN)Cc1n[nH]c2cccc(OCc3ccccc3)c12 [Compound 1]
IC50: 101 to 1000 nM
